# Measurements: patent US12508248B2, “Therapeutic agent for prototheca disease” (priority 2019, dated 2025)
# How the values were obtained:
# [1] = tested on: Prototheca blaskeae; experiment: Broth microdilution MIC assay, CLSI M27-A3 guideline; type: cell-based; conditions: strain NUBS19005, bovine protothecal mastitis; 32 degrees, 72 hours
# Procedure: (§1) For Prototheca wickerhamii, isolates (1 cat strain and 2 dog strains) were obtained from dogs and cats suffering from a prototheca disease. For Prototheca zopfii, bovine prototheca mastitis isolates (Genotype 2, 10 strains) and environmental isolates (Genotype 1, 10 strains) were obtained. For Prototheca blaskeae, a prototheca mastitis isolate (1 strain) was obtained. For Prototheca zopfii, the drug susceptibility was tested also on Genotype 1 established strain (SAG20063^T) and Genotype 2 established strain (SAG2021^T).
# (§2) The isolates were maintained on Yeast Extract-Peptone-Dextrose agar (YPD: 1% yeast extract, 2% peptone, 2% dextrose, 2% agar) and tested for antifungal susceptibility. The susceptibility of the isolates to the antifungal agents itraconazole (ITZ, Merck KGA) and ravuconazole (RVZ, selenium pharma) was measured using a trace liquid dilution method (broth microdilution assay) according to the CLSI M27-A3 guideline. The minimum inhibitory concentration (MIC) was measured after culturing at 32 degrees for 72 hours. MIC was defined as the lowest concentration that induces significant inhibition of growth (inhibition of about 50% or more). As a control, Candida parapsilosis ATCC 22019 obtained from ATCC was used, and the MIC assay of the CLSI M27-A3 test was performed.
# [2] = tested on: Prototheca wickerhamii; experiment: as above; type: cell-based; conditions: for MICs: 32 degrees, 72 hours
# Procedure: as §1, §2
# [3] = tested on: Prototheca zopfii Genotype 1; experiment: as above; type: cell-based; conditions: for MICs: 32 degrees, 72 hours
# Procedure: as §1, §2
# [4] = tested on: Prototheca zopfii Genotype 2; experiment: as above; type: cell-based; conditions: 32 degrees, 72 hours
# Procedure: as §1, §2
# [5] = tested on: Candida parapsilosis ATCC 22019; experiment: MIC assay of the CLSI M27-A3 test, control strain; type: cell-based
# Procedure: as §2
# [6] = tested on: prototheca species; experiment: Overall comparison of anti-algae effect against prototheca species; type: cell-based
# Procedure: as §2
# [7] = tested on: several strains of Prototheca wickerhamii and Prototheca zopfii; conditions: previous study on susceptibility, Non-Patent Document 1; cited from earlier work
# [8] = when administered to humans; cited from earlier work
# [9] = strain NUBS19001, feline protothecosis
# [10] = strain NUBS19002, canine protothecosis
# [11] = strain NUBS19003, canine protothecosis
# [12] = strain NUBS19004, environment (GT1)
# [13] = strain SAG2063T, type strain of (GT1)
# [14] = strain A7, bovine protothecal mastitis (GT2)
# [15] = strain A8, bovine protothecal mastitis (GT2)
# [16] = strain A9, bovine protothecal mastitis (GT2)
# [17] = strain A10, bovine protothecal mastitis (GT2)
# [18] = strain A11, bovine protothecal mastitis (GT2)
# [19] = strain A13, bovine protothecal mastitis (GT2)
# [20] = strain A14, bovine protothecal mastitis (GT2)
# [21] = strain A15, bovine protothecal mastitis (GT2)
# [22] = strain A16, bovine protothecal mastitis (GT2)
# [23] = strain A17, bovine protothecal mastitis (GT2)
# [24] = strain SAG2021T, type strain of GT2
Compound,MICs [1],"MICs [2, 9]","MICs [2, 10]","MICs [2, 11]","MICs ([3]; strain I1, environment (GT1))","MICs ([3]; strain I3, environment (GT1))","MICs [3, 12]","MICs ([3]; strain S2, environment (GT1))","MICs ([3]; strain S3, environment (GT1))","MICs ([3]; strain S29, environment (GT1))","MICs ([3]; strain S36, environment (GT1))","MICs ([3]; strain S42, environment (GT1))","MICs [3, 13]","MICs ([3]; strain W3, environment (GT1))","MICs ([3]; strain W20, environment (GT1))","MICs [4, 14]","MICs [4, 15]","MICs [4, 16]","MICs [4, 17]","MICs [4, 18]",also measured
ravuconazole [RVZ],0.03 mg/L,0.03 mg/L,0.03 mg/L,0.03 mg/L,0.03 mg/L,0.03 mg/L,0.03 mg/L,0.03 mg/L,0.03 mg/L,0.03 mg/L,0.03 mg/L,0.03 mg/L,0.03 mg/L,0.03 mg/L,0.03 mg/L,0.125 mg/L,0.03 mg/L,0.03 mg/L,0.03 mg/L,0.25 mg/L,"MIC of the three clinical isolates of Prototheca wickerhamii ([2]; summary over three clinical isolates): 0.03 µg/mL; MIC of 11 isolates of Genotype 1 of Prototheca zopfii ([3]; summary over 11 isolates of Genotype 1): 0.03 µg/mL; MICs [4, 19]: 0.125 mg/L; MICs [4, 20]: 0.03 mg/L; MICs [4, 21]: 0.0625 mg/L; MICs [4, 22]: 0.03 mg/L; MICs [4, 23]: 0.25 mg/L; MICs [4, 24]: 0.125 mg/L; MIC for the control strain Candida parapsilosis ATCC 22019 [5]: 0.03 µg/mL; effectiveness (anti-algae effect) compared with itraconazole against pathogen of prototheca species ([6]; versus itraconazole): more effective; activity compared with publicly known results of kanamycin, gentamicin, amphotericin B and itraconazole against prototheca species ([6]; versus publicly known results of KM, GM, AMB, ITZ): stronger activity"
"CCC(C)n1ncn(-c2ccc(N3CCN(c4ccc(OCC5COC(Cn6cncn6)(c6ccc(Cl)cc6Cl)O5)cc4)CC3)cc2)c1=O (stereo not shown) [ITZ, itraconazole]",32 mg/L,>32 mg/L,>32 mg/L,4 mg/L,2 mg/L,0.25 mg/L,1 mg/L,32 mg/L,8 mg/L,>32 mg/L,16 mg/L,8 mg/L,1.5 mg/L,4 mg/L,4 mg/L,32 mg/L,4 mg/L,>32 mg/L,>32 mg/L,>32 mg/L,"MICs [4, 19]: >32 mg/L; MICs [4, 20]: >32 mg/L; MICs [4, 21]: >32 mg/L; MICs [4, 22]: 8 mg/L; MICs [4, 23]: 4 mg/L; MICs [4, 24]: >32 mg/L; MIC ([5]; Lodderomyces parapsilosis, ATCC22019): 0.125 µg/mL"
"C[C@@H]1[C@H](O)[C@@H](C)/C=C/C=C/C=C/C=C/C=C/C=C/C=C/[C@H](O[C@@H]2O[C@H](C)[C@@H](O)[C@H](N)[C@@H]2O)C[C@@H]2O[C@](O)(C[C@@H](O)C[C@@H](O)[C@H](O)CC[C@@H](O)C[C@@H](O)CC(=O)O[C@H]1C)C[C@H](O)[C@H]2C(=O)O [AMB, amphotericin B]",,,,,,,,,,,,,,,,,,,,,effectiveness against several strains of Prototheca wickerhamii and Prototheca zopfii [7]: not effective
"C[C@@H](c1nc(-c2ccc(C#N)cc2)cs1)[C@@](Cn1cncn1)(OCOP(=O)(O)O)c1ccc(F)cc1F [Fosravuconazole, fosravuconazole]",,,,,,,,,,,,,,,,,,,,,conversion of prodrug to ravuconazole [8]: rapidly converted to ravuconazole
gentamicin,,,,,,,,,,,,,,,,,,,,,effectiveness against several strains of Prototheca wickerhamii and Prototheca zopfii [7]: not effective
